Assay results as given in patent publication US9612238B2 (priority 2011, dated 2017).
Entries after “also recorded” stand apart in the source; their conditions may differ.

What was measured:
22L prions = format: cell-based; conditions: for rebound of infectivity after treatment cessation (22L): 18 days post-infection, 6 days after treatment cessation; for infection of PK1 neuroblastoma cells by 22L prions (PrPSc western blot): pretreated 3 days, treated 12 days after infection, 9 and 18 days post-infection
[1] = test system: cell surface PrP on N2a cells; format: cell-based
RML prions = format: cell-based; conditions: for rebound of infectivity after treatment cessation (RML): 18 days post-infection, 6 days after treatment cessation; for infection of PK1 neuroblastoma cells by RML prions (PrPSc western blot): pretreated 3 days, treated 12 days after infection, 9 and 18 days post-infection
[2] = test system: cell surface PrP on LD9 cells; format: cell-based; conditions: 24 hours
[3] = test system: RML scrapie-infected PK1 cells; format: cell-based; conditions: 1 μg/ml PIPLC, 26 hours
cell surface PrP = conditions: 1 μg/ml

## COc1ccc(CCN2CCC(Nc3nc4ccccc4n3Cc3ccc(F)cc3)CC2)cc1 [Astemizole]
22L prions
  rebound of infectivity after treatment cessation (22L): no rebound of infectivity
  infection of PK1 neuroblastoma cells by 22L prions (PrPSc western blot): block infection
[1]
  reduction of cell surface PrP, confirmation by secondary screening: confirmed; also recorded: active
RML prions
  rebound of infectivity after treatment cessation (RML): no rebound of infectivity
  infection of PK1 neuroblastoma cells by RML prions (PrPSc western blot): block infection

## C[C@H]1CCC/C=C/[C@@H]2C[C@H](O)C[C@H]2[C@H](O)/C=C/C(=O)O1 [BFA, Brefeldine A]
[2]; 384-well screening plates
  PrP expression, percentage of the DMSO control: 0%
LD9 cells
  toxicity to LD9 cells (cell viability, CELLTITER-GLO): none of the tested doses of BFA were toxic

## CC[C@H]1CN2CCc3cc(OC)c(OC)cc3[C@@H]2C[C@@H]1C[C@H]1NCCc2cc(OC)c(OC)cc21 [Emetine]
[1]
  reduction of cell surface PrP, confirmation by secondary screening: active

## CC[C@@H](C(=O)[C@@H](C)[C@@H](O)[C@H](C)CCc1ccc(C)c(O)c1C(=O)O)[C@H]1O[C@](CC)([C@H]2CC[C@](O)(CC)[C@H](C)O2)C[C@@H]1C [Lasalocid sodium]
[1]
  reduction of cell surface PrP, confirmation by secondary screening: confirmed; also recorded: active

## CC[C@@]1([C@@H]2O[C@@H]([C@H]3O[C@@](O)(CO)[C@H](C)C[C@@H]3C)C[C@@H]2C)CC[C@H]([C@]2(C)CC[C@]3(C[C@H](O)[C@@H](C)[C@@H]([C@@H](C)[C@@H](OC)[C@H](C)C(=O)O)O3)O2)O1 [Monensin]
[1]
  reduction of cell surface PrP, confirmation by secondary screening: active

## C=CC[C@@H]1/C=C(\C)C[C@H](C)C[C@H](OC)[C@H]2O[C@@](O)(C(=O)C(=O)N3CCCC[C@H]3C(=O)O[C@H](/C(C)=C/[C@@H]3CC[C@@H](O)[C@H](OC)C3)[C@H](C)[C@@H](O)CC1=O)[C@H](C)C[C@@H]2OC [Tacrolimus]
[2]; 20 μM
  reduction of PrP expression in the primary assay: 70%
22L prions
  rebound of infectivity after treatment cessation (22L): no rebound of infectivity
  infection of PK1 neuroblastoma cells by 22L prions (PrPSc western blot): block infection
[1]
  reduction of cell surface PrP, confirmation by secondary screening: confirmed
[1]; at 30 (unit not given)
  reduction of PrP in the secondary assay, IN Cell analyzer quantification: 73%
  reduction of PrP in the secondary assay, flow cytometry: 75%
RML prions
  rebound of infectivity after treatment cessation (RML): no rebound of infectivity
  infection of PK1 neuroblastoma cells by RML prions (PrPSc western blot): block infection

## CCCCCCCCCCCCCCCC[N+](C)(C)C [cetrimonium]
[1]
  reduction of cell surface PrP, confirmation by secondary screening: active

## phosphatidylinositol phospholipase C [PIPLC]
[3]
  RI200 (reciprocal of the cell number required to give 200 spots): 5×10^−4
[3]; from RI200 values
  inhibition of infection: 85%
Cell surface PrP
  cell surface PrP removed: approximately 50%
